In ChEMBL document CHEMBL1201862, “PubChem BioAssay data set” (2004):
Counter-ions that a name gives are not always drawn. Active and inactive are the calls of the source.

Legend:
[1] = target: Beta-lactamase (Salmonella choleraesuis (strain SC-B67), UniProt Q5J463); experiment: Epi-absorbance-based counterscreen for selective VIM-2 inhibitors: dose response biochemical high throughput screening assay to identify inhibitors of TEM-1 serine-beta-lactamase.
[2] = target: T1, Beta-lactamase (Pseudomonas aeruginosa, UniProt Q79MP6); experiment: IMP-1 metallo-beta-lactamase inhibitors, dose response, selectivity assay for VIM-2 inhibitor project, biochemical, epi-absorbance (AID 1920)
[3] = target: T2, Estrogen receptor (Homo sapiens, UniProt P03372);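 further: potency for inhibiting coactivator peptide recruitment to the receptor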
T2 sequence (P03372 whole entry): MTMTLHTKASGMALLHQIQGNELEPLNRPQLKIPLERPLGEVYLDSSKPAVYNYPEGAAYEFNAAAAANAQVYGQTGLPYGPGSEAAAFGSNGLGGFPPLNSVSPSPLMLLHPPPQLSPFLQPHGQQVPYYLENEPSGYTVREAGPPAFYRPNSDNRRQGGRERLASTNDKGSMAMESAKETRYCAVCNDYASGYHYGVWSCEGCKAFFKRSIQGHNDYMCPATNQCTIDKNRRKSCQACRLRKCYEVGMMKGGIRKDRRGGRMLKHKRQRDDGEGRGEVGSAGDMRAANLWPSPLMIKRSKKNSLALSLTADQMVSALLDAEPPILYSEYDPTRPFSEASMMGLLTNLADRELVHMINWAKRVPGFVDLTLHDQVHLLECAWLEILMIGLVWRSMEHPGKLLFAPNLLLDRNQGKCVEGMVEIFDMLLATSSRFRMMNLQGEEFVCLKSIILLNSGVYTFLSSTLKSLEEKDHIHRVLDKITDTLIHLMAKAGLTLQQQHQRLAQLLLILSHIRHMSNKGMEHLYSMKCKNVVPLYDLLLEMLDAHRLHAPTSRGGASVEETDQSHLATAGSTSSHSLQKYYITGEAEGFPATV

[4] = target: T1, Beta-lactamase; experiment: […] counterscreen for selective VIM-2 inhibitors: dose response biochemical high throughput screening assay to identify inhibitors of IMP-1 metallo-beta-lactamase.
[5] = target: T3, High affinity choline transporter 1 (Homo sapiens, UniProt Q9GZV3); experiment: CHT inhibitors, dose response, cell-based, 5-point CRC, membrane potential dye (AID 504840); type: functional
T3 sequence (Q9GZV3 whole entry): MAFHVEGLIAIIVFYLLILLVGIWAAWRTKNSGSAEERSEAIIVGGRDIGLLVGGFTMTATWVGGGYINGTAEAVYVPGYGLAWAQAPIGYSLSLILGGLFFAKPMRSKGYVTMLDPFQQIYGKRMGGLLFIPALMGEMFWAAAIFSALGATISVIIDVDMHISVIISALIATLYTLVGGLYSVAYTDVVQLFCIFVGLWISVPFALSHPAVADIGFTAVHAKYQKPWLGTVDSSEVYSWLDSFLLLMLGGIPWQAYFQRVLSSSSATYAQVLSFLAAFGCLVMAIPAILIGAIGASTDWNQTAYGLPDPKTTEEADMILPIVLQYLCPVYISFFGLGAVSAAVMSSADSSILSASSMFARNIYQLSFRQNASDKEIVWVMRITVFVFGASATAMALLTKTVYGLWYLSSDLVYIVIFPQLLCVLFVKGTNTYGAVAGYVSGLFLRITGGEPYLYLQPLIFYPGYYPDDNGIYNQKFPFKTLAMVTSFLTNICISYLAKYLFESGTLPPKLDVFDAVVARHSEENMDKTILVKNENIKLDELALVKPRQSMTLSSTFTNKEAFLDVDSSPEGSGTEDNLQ

[6] = target: T3, High affinity choline transporter 1; experiment: CHT inhibitors, dose response, cell-based, 10-point CRC, membrane potential dye (AID 588401); type: functional;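 further: membrane potential dye fluorescence of choline-evoked depolarization via CHT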
[7] = target: Major prion protein (Homo sapiens, UniProt P04156); type: functional, cell-based
[8] = cells
[9] = inhibitors of firefly luciferase expression or activity, dose response, H4 neuroglioma cells, luminescence (AID 1990); type: functional, cell-based
[10] = Luminescence Cell-Based Dose Response HTS to Identify Inhibitors of 5'UTR Stem-Loop Driven Prion Protein mRNA Translation in H4 Neuroglioblastoma Cells. [Related pubchem assays: 1827 (Project Summary), 1813 (Primary HTS)]; type: functional
[11] = target: T4, DNA repair and recombination protein RAD54-like (Homo sapiens, UniProt Q92698); experiment: inhibitors of human RAD54 branch migration, confirmation, biochemical, fluorescence, cherry-picked samples, dose series (AID 651657); type: functional
T4 sequence (Q92698 whole entry): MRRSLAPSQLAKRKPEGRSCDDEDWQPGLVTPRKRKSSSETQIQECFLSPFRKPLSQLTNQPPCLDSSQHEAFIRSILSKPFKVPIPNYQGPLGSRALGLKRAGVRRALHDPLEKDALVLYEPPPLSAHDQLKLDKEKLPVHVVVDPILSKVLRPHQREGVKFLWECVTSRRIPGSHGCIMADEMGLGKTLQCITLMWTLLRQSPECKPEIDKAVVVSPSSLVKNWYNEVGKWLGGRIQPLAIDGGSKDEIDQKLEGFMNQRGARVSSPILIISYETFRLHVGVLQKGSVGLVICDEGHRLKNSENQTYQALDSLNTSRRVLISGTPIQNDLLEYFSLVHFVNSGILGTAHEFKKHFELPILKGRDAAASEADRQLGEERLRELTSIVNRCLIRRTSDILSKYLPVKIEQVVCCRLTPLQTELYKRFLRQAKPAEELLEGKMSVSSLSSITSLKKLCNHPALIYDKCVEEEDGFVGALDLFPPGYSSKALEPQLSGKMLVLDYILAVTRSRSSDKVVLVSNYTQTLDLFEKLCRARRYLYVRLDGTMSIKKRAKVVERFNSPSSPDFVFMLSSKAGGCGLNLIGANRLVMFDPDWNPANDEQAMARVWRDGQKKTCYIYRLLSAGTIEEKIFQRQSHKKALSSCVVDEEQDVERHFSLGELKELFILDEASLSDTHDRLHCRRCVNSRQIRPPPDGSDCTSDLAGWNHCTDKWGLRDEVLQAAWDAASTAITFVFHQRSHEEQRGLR

[12] = target: SWI/SNF-related matrix-associated actin-dependent regulator of chromatin subfamily A member 2 (Homo sapiens, UniProt P51531); experiment: Luminescence-based cell-based high throughput dose response assay to identify activators of the function of SWI/SNF related, matrix associated, actin dependent regulator of chromatin, subfamily a, member 2 (SMARCA2, BRM).; type: functional
[13] = Counterscreen for activators of the function of SWI/SNF related, matrix associated, actin dependent regulator of chromatin, subfamily a, member 2 (SMARCA2, BRM): Luminescence-based cell-based high throughput dose response assay to identify non-selective compounds using the VP16 reporter assay.; type: functional
[14] = target: DNA repair protein RAD52 homolog (Homo sapiens, UniProt P43351); type: functional, biochemical
[15] = HepG2 cell cytotoxicity, dose response, cytotoxicity control, ATP luminescence, cherry-pick, set 6 (AID 1053125); type: functional, cell-based
[16] = system: HEK293; experiment: cells; conditions: Homo sapiens
[17] = system: HEK293; experiment: cells; conditions: Homo sapiens; remark: listed apart in the source
[18] = cells; conditions: A549
[19] = cells; remark: listed apart in the source
[20] = cells; conditions: HEK293
[21] = target: Paired box protein Pax-8 (Homo sapiens, UniProt Q06710); experiment: inhibitors of PAX8-driven TPO luciferase reporter, dose response, RMG-I cells, cherry-pick (AID 687027); type: functional, cell-based;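 further: luciferase reporter driven by Pax8 target thyroperoxidase promoter measured by SteadyGlo luminescence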
[22] = PAX2 cell-based inhibition, dose response, selectivity assay for PAX8 inhibitor project, plate reader, dry powder samples (AID 743048); type: functional;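 further: HEK293 cells carrying a WT1 promoter luciferase reporter driven by expressed Pax2; potency is for inhibition of Pax2 driven reporter signal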
[23] = cytotoxicity in COV362 ovarian cancer cells, dose response, cytotoxicity control for PAX8 inhibitor project, cell-based, plate reader, dry powder, SA12 (AID 743144); type: functional
[24] = IOSE-T80 ovarian epithelial cell cytotoxicity, dose response, cytotoxicity control for PAX8 inhibitor project, plate reader, dry powder samples (AID 743045); type: functional, cell-based
[25] = A2780 ovarian cancer cell cytotoxicity, dose response, cytotoxicity control, plate reader, dry powder samples (AID 743046); type: functional, cell-based
[26] = NIH:OVCAR-3 ovarian cancer cell cytotoxicity, dose response, PAX8 inhibitor project, plate reader, dry powder samples (AID 743044); type: functional, cell-based
[27] = PAX5 activity inhibitors, dose response, selectivity assay for PAX8 inhibitor project, cell-based, plate reader, dry powder samples (AID 743047); type: functional;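 further: HEK293 cells carrying a Pax5 driven CD19 promoter luciferase reporter; potency of inhibitors that lower reporter luminescence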
[28] = IGROV1 ovarian cancer cell cytotoxicity, dose response, PAX8 inhibitor project, plate reader, dry powder samples (AID 743043); type: functional, cell-based; conditions: IGROV-1
[29] = cytotoxicity in OVCAR4 cells, dose response, cytotoxicity control for PAX8 inhibitor project, cell-based, plate reader, dry powder, SA11 (AID 743150); type: functional; conditions: OVCAR-4
[30] = cytotoxicity in COV434 cells, dose response, cytotoxicity control for PAX8 inhibitor project, cell-based, plate reader, dry powder, SA7 (AID 743145); type: functional
[31] = cytotoxicity in OV-90 ovarian cancer cells, dose response, PAX8 inhibitor project, cell-based, plate reader, dry powder, SA8 (AID 743149); type: functional
[32] = cytotoxicity dependent on PAX8, dose response, cell-based, plate reader, dry powder (AID 743049); type: functional
[33] = target: Potassium channel subfamily K member 9 (Homo sapiens, UniProt Q9NPC2); experiment: TASK3 (KCNK9) channel inhibitors, thallium flux, SAR follow-up, selectivity assay for TASK1 inhibitor project, cell-based, FluxOR thallium flux, concentration-response (AID 652211); type: functional;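 further: potency is for inhibitors of the channel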
[34] = target: Potassium voltage-gated channel subfamily KQT member 2 (Rattus norvegicus, UniProt O88943); experiment: KCNQ2 channel inhibition, SAR follow-up, selectivity assay for TASK1 inhibitor project, cell-based, FluxOR thallium flux, concentration-response (AID 652192); type: functional
[35] = target: Potassium channel subfamily K member 3 (Homo sapiens, UniProt O14649); experiment: TASK1 (KCNK3) potassium channel inhibitors, SAR follow-up, CHO cells, FluxOR thallium flux (AID 652212); type: functional
[36] = miR-122 activators in hepatoma reporter cells, dose response, cell-based, Huh7 psiCHECK-miR122, Renilla luciferase, cherry-picked (AID 651956); type: functional;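 further: huh7 hepatoma cells stably carrying a psiCHECK-2 miR-122 sensor plasmid; renilla luciferase signal reporting endogenous miR-122 activity after 48 h compound exposure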
[37] = HEK293T cytotoxicity, dose response, cytotoxicity control for miR-122 modulator project, cell-based, activator set, cherry-pick (AID 720690); type: functional;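 further: HEK293T human cells scored for general mammalian cytotoxicity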

Cn1ccnc1SCC(=O)Nc1ccc2nc(SCC(=O)NC3CC3)sc2c1
IC50 [1]: > 59.6 µM (inactive)
IC50 [2]: > 59.6 µM (inactive)
IC50 [3]: 25.7 µM (active)
IC50 [4]: > 59.6 µM (inactive)
IC50 [5]: 4.29 µM (active)
IC50 [6]: 0.843 µM (active)

COc1ccc(/C=C\C(=O)NCc2ccc3c(c2)cc(C)n3C)cc1OC
IC50 [7]: 40.3 µM (inactive)
IC50 [8]: > 138 µM (inactive)

Nc1c2ccccc2nc2ccccc12 [AMINACRINE HYDROCHLORIDE]
EC50 [9]: > 120 µM (not active)
EC50 [10]: > 60 µM (not active)
AC50 [11]: 2.76 µM (active)
EC50 [12]: > 3.38 µM (active)
EC50 [13]: > 91.1 µM (inactive)
AC50 [14]: < 1.92 µM (active)
AC50 [15]: 7.15 µM (active)
EC50 [16]: > 2.21 µM (active)
EC50 [17]: > 59.7 µM (inactive)
AC50 [18]: 4.06 µM (active)
AC50 [19]: 0.341 µM (active)
AC50 [20]: 2.57 µM (active)

COc1ccc(/C=C/C(=O)c2cc(F)ccc2OC(=O)c2ccccc2C)cc1OC
AC50 [21]: 1.74 µM (active)
AC50 [22]: > 100 µM (inactive)
AC50 [23]: 2.52 µM (active)
AC50 [24]: 4.08 µM (active)
AC50 [25]: 3.22 µM (active)
AC50 [26]: 13.2 µM (active)
AC50 [27]: 31.1 µM (active)
AC50 [28]: 3.26 µM (active)
AC50 [29]: 1.71 µM (active)
AC50 [30]: 1.79 µM (active)
AC50 [31]: 4.08 µM (active)
AC50 [32]: 5.56 µM (active)

COc1cnccc1C(=O)Nc1cccc(NC(=O)c2cccc(C)c2)c1
IC50 [33]: 2.43 µM (active)
IC50 [34]: 7.58 µM (active)
IC50 [35]: 0.18 µM (active)

C[C@@H]1CCCCO[C@H](CN(C)CC2CCCCC2)[C@H](C)CN([C@@H](C)CO)C(=O)c2cc(NC(=O)Nc3ccc(C(F)(F)F)cc3)ccc2O1
AC50 [36]: 2.85 µM (active)
AC50 [37]: 4.83 µM (active)
